Where “and” joins values, the source holds several entries; their conditions need not be identical. Equal values may be shown once. Toxic doses and inconclusive results are not listed.

This is an account of results in PubChem BioAssay AID330 (DTP/NCI, 2004).

The assay relates to P388 leukemia ip, CD2F1 mice, survival T/C. The experiment in a line: NCI In Vivo Anticancer Drug Screen. Data for tumor model P388 Leukemia (intraperitoneal) in CD2F1 (CDF1) mice. Particulars: endpoint: median survival time, higher = longer survival. The procedure: The antitumor activity of compounds was measured in mice bearing transplantable tumors. Survival or tumor size were measured and the results are expressed as the measurement made in the treated group (T) divided by the measurement made in the vehicle treated control group (C). The tumor model used in this assay is P388 Leukemia (intraperitoneal) in CD2F1 (CDF1) mice

The mark [1] stands for this setting: dose: 25.0 mg/kg/injection, schedule: Q01DX009 (ip), vehicle: saline with Tween-80.
Where [2] appears, read: dose: 50.0 mg/kg/injection, schedule: Q01DX009 (ip), vehicle: saline with Tween-80.
Setting [3] is: dose: 100.0 mg/kg/injection, schedule: Q01DX009 (ip), vehicle: saline with Tween-80.
[4] abbreviates: dose: 200.0 mg/kg/injection, schedule: Q01DX009 (ip), vehicle: saline with Tween-80.

As for `COc1cccc2c1C(=O)c1c(O)c3c(c(O)c1C2=O)C[C@@](O)(/C(C)=N\O)C[C@@H]3OC1CC(N)C(O)C(C)O1` (stereo partly drawn), the T/C by setting is: (dose: 3.13 mg/kg/injection, schedule: Q01DX009 (ip), vehicle: water) 154 % of control; (dose: 6.25 mg/kg/injection, schedule: Q01DX009 (ip), vehicle: water) 165 % of control; (dose: 6.25 mg/kg/injection, schedule: Q04DX003 (ip), vehicle: water) 115 % of control and 124 % of control; (dose: 12.5 mg/kg/injection, schedule: Q01DX009 (ip), vehicle: water) 183 % of control; (dose: 12.5 mg/kg/injection, schedule: Q04DX003 (ip), vehicle: water) 116 % of control and 117 % of control; (dose: 25.0 mg/kg/injection, schedule: Q01DX009 (ip), vehicle: water) 100 % of control. In addition, the T/C by setting is: (dose: 25.0 mg/kg/injection, schedule: Q04DX003 (ip), vehicle: water) 123 % of control; (dose: 100.0 mg/kg/injection, schedule: Q04DX003 (ip), vehicle: water) 119 % of control; (dose: 200.0 mg/kg/injection, schedule: Q04DX003 (ip), vehicle: water) 101 % of control.
Consider `C=C(C#N)COc1ccc(Cl)cc1C`, for which the T/C runs as follows: (dose: 12.5 mg/kg/injection, schedule: Q01DX009 (ip), vehicle: Klucel (hydroxypropylcellulose) (HPC)) 101 % of control; (dose: 25.0 mg/kg/injection, schedule: Q01DX009 (ip), vehicle: Klucel (hydroxypropylcellulose) (HPC)) 98 % of control; (dose: 50.0 mg/kg/injection, schedule: Q01DX009 (ip), vehicle: Klucel (hydroxypropylcellulose) (HPC)) 104 % of control and 95 % of control.
For `Nc1nc2c(ncn2C2OC(CO)C(O)C2N)c(=O)[nH]1` (stereo not drawn), the T/C is 106 % of control and 97 % of control under setting [1]; 103 % of control (dose: 25.0 mg/kg/injection, schedule: Q04DX003 (ip), vehicle: saline with Tween-80); 101 % of control (dose: 25.0 mg/kg/injection, schedule: Q04DX003 (ip), vehicle: saline); 100 % of control and 107 % of control under setting [2]; 96 % of control (dose: 50.0 mg/kg/injection, schedule: Q04DX003 (ip), vehicle: saline with Tween-80); 104 % of control (dose: 50.0 mg/kg/injection, schedule: Q04DX003 (ip), vehicle: saline). The T/C was 106 % of control under setting [3]; 101 % of control (dose: 100.0 mg/kg/injection, schedule: Q04DX003 (ip), vehicle: saline with Tween-80); 100 % of control and 105 % of control (dose: 100.0 mg/kg/injection, schedule: Q04DX003 (ip), vehicle: saline); 100 % of control under setting [4]; 104 % of control (dose: 200.0 mg/kg/injection, schedule: Q04DX003 (ip), vehicle: saline with Tween-80); 98 % of control and 108 % of control (dose: 200.0 mg/kg/injection, schedule: Q04DX003 (ip), vehicle: saline). Moreover, the T/C is 101 % of control (dose: 400.0 mg/kg/injection, schedule: Q04DX003 (ip), vehicle: saline with Tween-80); 105 % of control and 107 % of control (dose: 400.0 mg/kg/injection, schedule: Q04DX003 (ip), vehicle: saline).
`Sc1nc2ccccc2s1.Sc1nc2ccccc2s1.Sc1nc2ccccc2s1.Sc1nc2ccccc2s1.[Cl][Rh][Cl]`: the T/C is 93 % of control under setting [2], 101 % of control under setting [3] and 101 % of control under setting [4].
For `COC(=O)c1c2cccc(C)c2nc2c(C)cccc12`, the T/C was 107 % of control (dose: 50.0 mg/kg/injection, schedule: Q01DX005 (ip), vehicle: saline with Tween-80); 107 % of control (dose: 100.0 mg/kg/injection, schedule: Q01DX005 (ip), vehicle: saline with Tween-80); 100 % of control (dose: 200.0 mg/kg/injection, schedule: Q01DX005 (ip), vehicle: saline with Tween-80).
On to `CCC1(c2cccc(C=O)c2)CCCCN(C)C1` (stereo not drawn), for which the T/C is 99 % of control (dose: 12.5 mg/kg/injection, schedule: Q01DX005 (ip), vehicle: saline); 97 % of control (dose: 25.0 mg/kg/injection, schedule: Q01DX005 (ip), vehicle: saline); 97 % of control (dose: 50.0 mg/kg/injection, schedule: Q01DX005 (ip), vehicle: saline).
Take `N#CCC(=O)O`: the T/C is 100 % of control (dose: 18.75 mg/kg/injection, schedule: Q04DX003 (ip), vehicle: saline); 100 % of control (dose: 37.5 mg/kg/injection, schedule: Q04DX003 (ip), vehicle: saline); 90 % of control (dose: 75.0 mg/kg/injection, schedule: Q04DX003 (ip), vehicle: saline).
As to `COc1c(C)c2c(c(C)c1Cl)Oc1c(C)c(O)c(Cl)c(C)c1C(=O)O2`, the T/C reads like this: (dose: 1.12 mg/kg/injection, schedule: Q01DX009 (ip), vehicle: Klucel (hydroxypropylcellulose) (HPC)) 112 % of control; (dose: 2.25 mg/kg/injection, schedule: Q01DX009 (ip), vehicle: Klucel (hydroxypropylcellulose) (HPC)) 105 % of control; (dose: 4.5 mg/kg/injection, schedule: Q01DX009 (ip), vehicle: Klucel (hydroxypropylcellulose) (HPC)) 108 % of control; (dose: 9.0 mg/kg/injection, schedule: Q01DX009 (ip), vehicle: Klucel (hydroxypropylcellulose) (HPC)) 96 % of control; (dose: 18.0 mg/kg/injection, schedule: Q01DX009 (ip), vehicle: Klucel (hydroxypropylcellulose) (HPC)) 102 % of control.
On to `O=C1c2c(O)ccc(O)c2C(=O)c2c(NCCN(CCO)Cc3ccccc3)ccc(NCCN(CCO)Cc3ccccc3)c21`, for which the T/C reads like this: (dose: 0.62 mg/kg/injection, schedule: Q01DX009 (ip), vehicle: saline with Tween-80) 118 % of control; (dose: 1.25 mg/kg/injection, schedule: Q01DX009 (ip), vehicle: saline with Tween-80) 106 % of control; (dose: 2.5 mg/kg/injection, schedule: Q01DX009 (ip), vehicle: saline with Tween-80) 97 % of control; (dose: 5.0 mg/kg/injection, schedule: Q01DX009 (ip), vehicle: saline with Tween-80) 109 % of control; (dose: 10.0 mg/kg/injection, schedule: Q01DX009 (ip), vehicle: saline with Tween-80) 86 % of control; (dose: 20.0 mg/kg/injection, schedule: Q01DX009 (ip), vehicle: saline with Tween-80) 103 % of control. The T/C was 101 % of control (dose: 40.0 mg/kg/injection, schedule: Q01DX009 (ip), vehicle: distilled water + Tween-80); 103 % of control (dose: 40.0 mg/kg/injection, schedule: Q01DX009 (ip), vehicle: saline with Tween-80); 123 % of control (dose: 80.0 mg/kg/injection, schedule: Q01DX009 (ip), vehicle: distilled water + Tween-80); 106 % of control (dose: 80.0 mg/kg/injection, schedule: Q01DX009 (ip), vehicle: saline with Tween-80); 166 % of control (dose: 160.0 mg/kg/injection, schedule: Q01DX009 (ip), vehicle: distilled water + Tween-80); 163 % of control (dose: 160.0 mg/kg/injection, schedule: Q01DX009 (ip), vehicle: saline with Tween-80). Further, for the setting “dose: 320.0 mg/kg/injection, schedule: Q01DX009 (ip), vehicle: distilled water + Tween-80”, the T/C is 194 % of control.
On to `c1ccc(N[n+]2ccc3ccccc3c2)cc1`, for which the T/C is 104 % of control (dose: 6.25 mg/kg/injection, schedule: Q01DX009 (ip), vehicle: distilled water + alcohol); 104 % of control (dose: 12.5 mg/kg/injection, schedule: Q01DX009 (ip), vehicle: distilled water + alcohol); 102 % of control (dose: 25.0 mg/kg/injection, schedule: Q01DX009 (ip), vehicle: distilled water + alcohol).
Regarding `CCOC(=O)C1=C(C)NC(C)=C(C(=O)OCC)C1c1ccccc1Cl`, the T/C (dose: 12.5 mg/kg/injection, schedule: Q01DX009 (ip), vehicle: saline) was 100 % of control; the T/C (dose: 25.0 mg/kg/injection, schedule: Q01DX009 (ip), vehicle: saline) is 110 % of control; the T/C (dose: 50.0 mg/kg/injection, schedule: Q01DX009 (ip), vehicle: saline) is 120 % of control.
In the case of `Cc1ccc(NP2(Nc3ccc(C)cc3)=NP(Nc3ccc(C)cc3)(Nc3ccc(C)cc3)=NP(Nc3ccc(C)cc3)(Nc3ccc(C)cc3)=NP(Nc3ccc(C)cc3)(Nc3ccc(C)cc3)=N2)cc1`, the T/C runs as follows: (dose: 50.0 mg/kg/injection, schedule: Q01DX005 (ip), vehicle: Klucel (hydroxypropylcellulose) (HPC)) 101 % of control; (dose: 100.0 mg/kg/injection, schedule: Q01DX005 (ip), vehicle: Klucel (hydroxypropylcellulose) (HPC)) 99 % of control; (dose: 200.0 mg/kg/injection, schedule: Q01DX005 (ip), vehicle: Klucel (hydroxypropylcellulose) (HPC)) 101 % of control.
As for `CCCCCCCCCCCCCCCC[N+]1([O-])CCOCC1`, the T/C is, setting by setting: (dose: 12.5 mg/kg/injection, schedule: Q01DX009 (ip), vehicle: saline with Tween-80) 105 % of control; under setting [1], 102 % of control; under setting [2], 102 % of control.
